Results: US11109593B2, “Isoxazolin-5-one derivative and herbicide containing same as active ingredient” (HOKKO CHEMICAL INDUSTRY CO., LTD., priority 2017, dated 2021)

The molecules below were run on Echinochloa crus-galli (assay: Test Example 1: herbicidal effect test by treatment of rice paddy soil (immediately after seeding)). Settings: 120 g/10a active ingredient, dry weight vs untreated area, 14 days after treatment.
Format: in vivo
In short: (§1)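 Pre-emergence paddy water application, 120 g a.i./10 ares, applied immediately post-seeding into ~3 cm flood; glasshouse; duplicate pots; dry weight at 14 d → % inhibition = (1 − treated/untreated) × 100.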

Structure (SMILES)	Herbicidal rate (%) Echinochloa crus-galli
CCC(C)n1oc(=O)c(Cc2ccccc2N(C(=O)C2CCCCC2)S(=O)(=O)C(F)(F)F)c1C (centres unmarked) [Compound 1-432]	90%
CCC(C)n1oc(=O)c(Cc2ccccc2N(C(=O)c2ccccn2)S(=O)(=O)C(F)(F)F)c1C (centres unmarked) [Compound 1-528]	90%

These molecules were tested on Scirpus juncoides in the same assay as above. Settings: 120 g/10a active ingredient, dry weight vs untreated area, 14 days after treatment.
Format: in vivo
In short: as §1

Structure (SMILES)	Herbicidal rate (%) Scirpus juncoides
CCC(C)n1oc(=O)c(Cc2ccccc2N(C(=O)C2CCCCC2)S(=O)(=O)C(F)(F)F)c1C (centres unmarked) [Compound 1-432]	90%
CCC(C)n1oc(=O)c(Cc2ccccc2N(C(=O)c2ccccn2)S(=O)(=O)C(F)(F)F)c1C (centres unmarked) [Compound 1-528]	90%

Each molecule was assayed on broad leaf weeds (Lindernia pyxidaria and Monochoria vaginalis) in the same assay as above. Settings: Lindernia pyxidaria, 120 g/10a active ingredient, dry weight vs untreated area, 14 days after treatment.
Format: in vivo
In short: as §1

Structure (SMILES)	Herbicidal rate (%) Lindernia pyxidaria
CCC(C)n1oc(=O)c(Cc2ccccc2N(C(=O)C2CCCCC2)S(=O)(=O)C(F)(F)F)c1C (centres unmarked) [Compound 1-432]	90%
CCC(C)n1oc(=O)c(Cc2ccccc2N(C(=O)c2ccccn2)S(=O)(=O)C(F)(F)F)c1C (centres unmarked) [Compound 1-528]	90%

Same assay, conditions: Monochoria vaginalis, 120 g/10a active ingredient, dry weight vs untreated area, 14 days after treatment

Structure (SMILES)	Herbicidal rate (%) Monochoria vaginalis
CCC(C)n1oc(=O)c(Cc2ccccc2N(C(=O)C2CCCCC2)S(=O)(=O)C(F)(F)F)c1C (centres unmarked) [Compound 1-432]	90%
CCC(C)n1oc(=O)c(Cc2ccccc2N(C(=O)c2ccccn2)S(=O)(=O)C(F)(F)F)c1C (centres unmarked) [Compound 1-528]	90%

The molecules below were run on Echinochloa crus-galli (assay: Test Example 2: herbicidal effect test by treatment during growing period in paddy rice cultivation (seven days after seeding)). Settings: 120 g/10a active ingredient, assessed 14 days after treatment, dry weight vs untreated area.
Format: in vivo
In short: (§2)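 Seeds sown 0–1 cm deep in puddled, fertilised paddy soil with about 3 cm standing water in a glass greenhouse. Diluted emulsion dropped into the water seven days after seeding at 120 g active ingredient per 10 ares. Herbicidal rate (%) from mean dry weight vs untreated, duplicate, 14 days after treatment.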

Structure (SMILES)	Herbicidal rate (%) Echinochloa crus-galli
CCC(C)n1oc(=O)c(Cc2ccccc2N(C(=O)C2CCCCC2)S(=O)(=O)C(F)(F)F)c1C (centres unmarked) [Compound 1-432]	90%
CCC(C)n1oc(=O)c(Cc2ccccc2N(C(=O)c2ccccn2)S(=O)(=O)C(F)(F)F)c1C (centres unmarked) [Compound 1-528]	90%

These molecules were tested on Scirpus juncoides in the same assay as above. Settings: 120 g/10a active ingredient, assessed 14 days after treatment, dry weight vs untreated area.
Format: in vivo
In short: as §2

Structure (SMILES)	Herbicidal rate (%) Scirpus juncoides
CCC(C)n1oc(=O)c(Cc2ccccc2N(C(=O)C2CCCCC2)S(=O)(=O)C(F)(F)F)c1C (centres unmarked) [Compound 1-432]	90%
CCC(C)n1oc(=O)c(Cc2ccccc2N(C(=O)c2ccccn2)S(=O)(=O)C(F)(F)F)c1C (centres unmarked) [Compound 1-528]	90%

The molecules below were run on broad leaf weeds (Lindernia pyxidaria and Monochoria vaginalis) in the same assay as above. Settings: Lindernia pyxidaria, 120 g/10a active ingredient, assessed 14 days after treatment, dry weight vs untreated area.
Format: in vivo
In short: as §2

Structure (SMILES)	Herbicidal rate (%) Lindernia pyxidaria
CCC(C)n1oc(=O)c(Cc2ccccc2N(C(=O)C2CCCCC2)S(=O)(=O)C(F)(F)F)c1C (centres unmarked) [Compound 1-432]	90%
CCC(C)n1oc(=O)c(Cc2ccccc2N(C(=O)c2ccccn2)S(=O)(=O)C(F)(F)F)c1C (centres unmarked) [Compound 1-528]	90%

Same assay, conditions: Monochoria vaginalis, 120 g/10a active ingredient, assessed 14 days after treatment, dry weight vs untreated area

Structure (SMILES)	Herbicidal rate (%) Monochoria vaginalis
CCC(C)n1oc(=O)c(Cc2ccccc2N(C(=O)C2CCCCC2)S(=O)(=O)C(F)(F)F)c1C (centres unmarked) [Compound 1-432]	90%
CCC(C)n1oc(=O)c(Cc2ccccc2N(C(=O)c2ccccn2)S(=O)(=O)C(F)(F)F)c1C (centres unmarked) [Compound 1-528]	90%

The molecules below were run on Amaranthus viridis (assay: Test Example 3: herbicidal effect test by treatment of dry field farming soil (one day after seeding)). Settings: 120 g/10a active ingredient, evaluated 14 days after treatment.
Format: in vivo
In short: (§3)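 Alluvial dry-field soil in pots, top 1 cm mixed with 20 seeds per weed species. One day after seeding, the water-diluted emulsion was sprayed onto the soil surface at 100 L per 10 ares (120 g active ingredient per 10 ares). Duplicate pots; herbicidal rate (%) from plant dry weight versus untreated, 14 days after treatment.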

Structure (SMILES)	herbicidal rate, Amaranthus viridis
CCC(C)n1oc(=O)c(Cc2ccccc2N(C(=O)C2CCCCC2)S(=O)(=O)C(F)(F)F)c1C (centres unmarked) [Compound 1-432]	90%
CCC(C)n1oc(=O)c(Cc2ccccc2N(C(=O)c2ccccn2)S(=O)(=O)C(F)(F)F)c1C (centres unmarked) [Compound 1-528]	90%

Each molecule was assayed on Chenopodium album in the same assay as above. Settings: 120 g/10a active ingredient, evaluated 14 days after treatment.
Format: in vivo
In short: as §3

Structure (SMILES)	herbicidal rate, Chenopodium album
CCC(C)n1oc(=O)c(Cc2ccccc2N(C(=O)C2CCCCC2)S(=O)(=O)C(F)(F)F)c1C (centres unmarked) [Compound 1-432]	90%
CCC(C)n1oc(=O)c(Cc2ccccc2N(C(=O)c2ccccn2)S(=O)(=O)C(F)(F)F)c1C (centres unmarked) [Compound 1-528]	90%

The molecules below were run on Echinochloa crus-galli in the same assay as above. Settings: 120 g/10a active ingredient, evaluated 14 days after treatment.
Format: in vivo
In short: as §3

Structure (SMILES)	herbicidal rate, Echinochloa crus-galli
CCC(C)n1oc(=O)c(Cc2ccccc2N(C(=O)C2CCCCC2)S(=O)(=O)C(F)(F)F)c1C (centres unmarked) [Compound 1-432]	90%
CCC(C)n1oc(=O)c(Cc2ccccc2N(C(=O)c2ccccn2)S(=O)(=O)C(F)(F)F)c1C (centres unmarked) [Compound 1-528]	90%

What follows are molecules tested on southern crabgrass in the same assay as above. Settings: 120 g/10a active ingredient, evaluated 14 days after treatment.
Format: in vivo
In short: as §3

Structure (SMILES)	herbicidal rate, southern crabgrass
CCC(C)n1oc(=O)c(Cc2ccccc2N(C(=O)C2CCCCC2)S(=O)(=O)C(F)(F)F)c1C (centres unmarked) [Compound 1-432]	90%
CCC(C)n1oc(=O)c(Cc2ccccc2N(C(=O)c2ccccn2)S(=O)(=O)C(F)(F)F)c1C (centres unmarked) [Compound 1-528]	90%

The molecules below were run on Amaranthus viridis (assay: Test Example 4: herbicidal effect test by treatment of leave and stem in dry field farming (seven days after seeding)). Settings: 120 g/10a active ingredient; emulsion sprayed seven days after seeding; evaluated 14 days after treatment.
Format: in vivo
In short: (§4)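 Weeds were seeded at 20 seeds per species into the top 1 cm of alluvial upland soil in pots, then sprayed 7 days after seeding with water-diluted emulsifiable concentrate at 100 L/10 a, giving 120 g active ingredient/10 a. Duplicate pots; herbicidal rate (%) was 14 days post-treatment, from dry weight versus untreated.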

Structure (SMILES)	herbicidal effect (herbicidal rate), Amaranthus viridis
CCC(C)n1oc(=O)c(Cc2ccccc2N(C(=O)C2CCCCC2)S(=O)(=O)C(F)(F)F)c1C (centres unmarked) [Compound 1-432]	40%
CCC(C)n1oc(=O)c(Cc2ccccc2N(C(=O)c2ccccn2)S(=O)(=O)C(F)(F)F)c1C (centres unmarked) [Compound 1-528]	40%

What follows are molecules tested on Chenopodium album in the same assay as above. Settings: 120 g/10a active ingredient; emulsion sprayed seven days after seeding; evaluated 14 days after treatment.
Format: in vivo
In short: as §4

Structure (SMILES)	herbicidal effect (herbicidal rate), Chenopodium album
CCC(C)n1oc(=O)c(Cc2ccccc2N(C(=O)C2CCCCC2)S(=O)(=O)C(F)(F)F)c1C (centres unmarked) [Compound 1-432]	40%
CCC(C)n1oc(=O)c(Cc2ccccc2N(C(=O)c2ccccn2)S(=O)(=O)C(F)(F)F)c1C (centres unmarked) [Compound 1-528]	40%

What follows are molecules tested on Echinochloa crus-galli in the same assay as above. Settings: 120 g/10a active ingredient; emulsion sprayed seven days after seeding; evaluated 14 days after treatment.
Format: in vivo
In short: as §4

Structure (SMILES)	herbicidal effect (herbicidal rate), Echinochloa crus-galli
CCC(C)n1oc(=O)c(Cc2ccccc2N(C(=O)C2CCCCC2)S(=O)(=O)C(F)(F)F)c1C (centres unmarked) [Compound 1-432]	90%
CCC(C)n1oc(=O)c(Cc2ccccc2N(C(=O)c2ccccn2)S(=O)(=O)C(F)(F)F)c1C (centres unmarked) [Compound 1-528]	90%

Each molecule was assayed on southern crabgrass in the same assay as above. Settings: 120 g/10a active ingredient; emulsion sprayed seven days after seeding; evaluated 14 days after treatment.
Format: in vivo
In short: as §4

Structure (SMILES)	herbicidal effect (herbicidal rate), southern crabgrass
CCC(C)n1oc(=O)c(Cc2ccccc2N(C(=O)C2CCCCC2)S(=O)(=O)C(F)(F)F)c1C (centres unmarked) [Compound 1-432]	90%
CCC(C)n1oc(=O)c(Cc2ccccc2N(C(=O)c2ccccn2)S(=O)(=O)C(F)(F)F)c1C (centres unmarked) [Compound 1-528]	90%
